Data: patent publication US6060468A, “N-substituted azaheterocyclic compounds” (Novo Nordisk A/S, priority 1996, dated 2000)

Tested on: histamine induced paw oedema
Assay: Histamine induced paw oedema (rat)
Assay type: in vivo, male Sprague-Dawley rats
Settings: 1.0 mg/kg, intraperitoneal, 15 min before anaesthetics; histamine 50 microliter 3 mg/ml in right hind paw; swelling after 20 min
Method: I. Histamine Induced Paw Oedema The rat histamine paw oedema test was performed essentially as described by Amann et al. (Europ. J. Pharmacol. 279, 227-231, 1995). In brief 250-300 g male Sprague-Dawley rats were anaesthetized with pentobarbital sodium, and placed on a 32 degree (Celsius) heated table. Ten minutes later histamine (50 micoliter, 3 mg/ml) was injected in the right hind paw and 20 minutes hereafter the paw swelling was determined by water plethysmography (Ugo Basile). Test compounds were administered intraperitoneally at 15 minutes before the anaesthetics. Values for inhibition of histamine induced oedema response for some representative compounds are recorded in table 1.

| SMILES | % Oedema inhibition (inhibition of histamine induced oedema response) |
| --- | --- |
| O=C(O)[C@@H]1CCCN(CCOC2Cc3ccccc3Sc3ccccc32)C1 (stereo partly drawn) [Example 1, 1-(2-(10,11-Dihydrodibenzo[b,f]thiepin-10-yloxy)-1-ethyl)-(3R)-piperidinecarboxylic acid acetate] | 37% |
| Cc1ccc2c(c1)CC(OCCN1CCCC(C(=O)O)C1)c1ccccc1S2.O=C(O)C(=O)O (centres unmarked) [Example 5, 1-(2-(2-Methyl-10,11-dihydrodibenzo[b,f]thiepin-10-yloxy)-1-ethyl)-3-piperidinecarboxylic acid hydrogen oxalate] | 49% |
